Among the data in US20250129051A1, “PARP1 INHIBITORS AND USES THEREOF” (Gilead Sciences, Inc., priority 2023, published 2025) are IC50 values, retold here.

Common to all, as to type: cell-based
Test [1] relates to DLD-1 BRCA2 (−/−) cells. Description: Cell growth inhibition assay (CellTiter-Glo), DLD-1 BRCA2 (−/−). As to conditions: Homo sapiens, 168 h, 7 days, CellTiter Glo 2.0. An excerpt: (§1) The objective of this study was to evaluate the effect of a compound disclosed herein on cell proliferation through the cell viability assay in DLD-1 BRCA2 (−/−) and parental isogenic pair and MDA-MB-436 (mutated BRCA1) cell lines. The CellTiter-Glo (CTG) based cell viability assay was designed to determine the number of viable cells in the culture because of compound effect, by quantifying adenosine triphosphate (ATP), which indicates the presence of metabolically active cells.
(§2) DLD-1 BRCA2 (−/−) and parental isogenic pair were cultured in RPMI 1640 supplemented with 10% fetal bovine serum (FBS), and MDA-MB-436 cells were cultured in Dulbecco's Modified Eagle Medium (DMEM) supplemented with 10% FBS. Both were cultured at 37° C. with 5% CO2. Compounds were distributed to the 384 well plate (Corning, 3764) using Echo acoustic liquid handler to form a 1:3 serially diluted final concentration with top dose of 10 or 30 μM. The cells were seeded into the plate in the density of 50 cells/well (DLD-1 parental), 200 cells/well (DLD-1 BRCA2−/−), or 500 cells/well (MDA-MB-436). After a short spin, the cells were cultured in a well moisturized incubator at 37° C. with 5% CO2 for 7 days without disturbance. The cell viability was measured by CellTiter Glo 2.0 assay kit (Promega, G9243), and growth inhibition rate was calculated and plotted against final compound concentration, and the data were fitted in Xfit to generate IC50.

Test [2] relates to DLD-1 parental cells. Kind of test: Cell growth inhibition assay (CellTiter-Glo), DLD-1 parental. As to conditions: Homo sapiens, 168 h, 7 days, CellTiter Glo 2.0.
Source text: as §1, §2

Test [3] has as its system MDA-MB-436 (mutated BRCA1) cells. Description: Cell growth inhibition assay (CellTiter-Glo), MDA-MB-436. The note with it: Homo sapiens, 168 h; MDA-MB-436 cells, 7 days, CellTiter Glo 2.0.
Source text: as §1, §2

Take `Cc1nc2ccc(CN3C[C@H](Oc4ccc(C(=O)NC5CC5)nc4F)[C@H]3C)c(F)c2[nH]c1=O` [Compound 6, N-cyclopropyl-6-fluoro-5-(((2R,3S)-1-((5-fluoro-2-methyl-3-oxo-3,4-dihydroquinoxalin-6-yl)methyl)-2-methylazetidin-3-yl)oxy) picolinamide]: the values for the half-maximal inhibitory concentration (IC50) in test [1], in test [2] and in test [3] were 0.028 µM, over 10 µM and 0.0089 µM, respectively.
The corresponding values for `CNC(=O)c1ccc(O[C@H]2CN(Cc3ccc4nc(C)c(=O)[nH]c4c3F)[C@@H]2C)c(F)n1` [Compound 5, 6-fluoro-5-(((2R,3S)-1-((5-fluoro-2-methyl-3-oxo-3,4-dihydroquinoxalin-6-yl)methyl)-2-methylazetidin-3-yl)oxy)-N-methylpicolinamide] are 0.067 µM, over 10 µM and 0.023 µM.
For `Cc1nc2ccc(CN3C[C@H](Oc4ccc(C#N)nc4F)[C@H]3C)c(F)c2[nH]c1=O` [Compound 7, 6-fluoro-5-(((2R,3S)-1-((5-fluoro-2-methyl-3-oxo-3,4-dihydroquinoxalin-6-yl)methyl)-2-methylazetidin-3-yl)oxy) picolinonitrile], the half-maximal inhibitory concentration (IC50) was over 1 µM in test [1], over 10 µM in test [2] and over 1 µM in test [3].
